According to publication PMC9944867, “Mechanistic in vitro studies indicate that the clinical drug–drug interactions between protease inhibitors and rosuvastatin are driven by inhibition of intestinal BCRP and hepatic OATP1B1 with minimal contribution from OATP1B3, NTCP and OAT3” (Pharmacology Research & Perspectives, 2023):
“And” between values parts separate entries of the source, which are not always exact repeats. Identical values can stand only once. Marks after values point to notes of the source that are not given here.

Key:
[1] = test system: intestinal BCRP and hepatic OATP1B1, OATP1B3, NTCP
[2] = molecular target: T1, OATP1B1 (Homo sapiens, UniProt Q9Y6L6); assay: OATP1B1 inhibition in transporter-expressing HEK293 cells, [3H]-estradiol 17β-D-glucuronide uptake (IC50 determination); details: human, HEK293 cells expressing OATP1B1 (with vector control cells), pH 7.4, probe [3H]-estradiol 17β-D-glucuronide (0.02 μM), IC50, determined values from different occasions (OATP1B1), OATP1B1-mediated transport of [3H]-estradiol 17β-D-glucuronide (0.02 μM), HEK293; single occasion
T1 sequence (Q9Y6L6 1-691): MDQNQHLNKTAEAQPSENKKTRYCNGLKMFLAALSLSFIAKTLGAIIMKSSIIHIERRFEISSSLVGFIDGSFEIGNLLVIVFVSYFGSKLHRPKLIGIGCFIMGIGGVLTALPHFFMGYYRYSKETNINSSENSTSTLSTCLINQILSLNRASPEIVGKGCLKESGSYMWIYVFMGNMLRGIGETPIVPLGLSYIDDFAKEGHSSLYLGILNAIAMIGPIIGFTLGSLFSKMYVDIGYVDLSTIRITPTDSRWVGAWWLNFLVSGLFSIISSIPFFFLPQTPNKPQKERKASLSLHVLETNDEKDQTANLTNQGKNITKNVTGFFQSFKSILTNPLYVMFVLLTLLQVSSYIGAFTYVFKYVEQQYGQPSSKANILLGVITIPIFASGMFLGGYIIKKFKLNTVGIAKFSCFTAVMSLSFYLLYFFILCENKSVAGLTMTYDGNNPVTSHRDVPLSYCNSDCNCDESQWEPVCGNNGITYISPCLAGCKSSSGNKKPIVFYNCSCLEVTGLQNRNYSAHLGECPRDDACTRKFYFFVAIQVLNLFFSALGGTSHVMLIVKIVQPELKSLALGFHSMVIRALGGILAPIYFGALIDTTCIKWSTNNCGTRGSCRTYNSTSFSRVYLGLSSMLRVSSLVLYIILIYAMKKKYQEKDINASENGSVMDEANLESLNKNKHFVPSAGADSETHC
Protocol: OATP1B1, OATP1B3, NTCP and vector control cell lines were cultured and subsequent transporter assays conducted as described above using the same transporter‐specific probe substrates and incubation times. For OATP1B1, the probe substrate was [^3H]‐estradiol 17β‐D‐glucuronide (0.02 μM) incubated for 2 min, with rifamycin SV (100 μM) as positive control inhibitor. For IC50 determinations, the only difference to the method performed above was that the 15‐min pre‐incubation step contained a range of six concentrations of protease inhibitor drug, and subsequent incubations were conducted with the same six concentration levels of drug rather than with a single concentration.

[3] = molecular target: T2, BCRP (Homo sapiens, UniProt Q9UNQ0); details: probe substrate pheophorbide A; ref Weiss et al.[15]; cited from earlier work
T2 sequence (Q9UNQ0 1-655): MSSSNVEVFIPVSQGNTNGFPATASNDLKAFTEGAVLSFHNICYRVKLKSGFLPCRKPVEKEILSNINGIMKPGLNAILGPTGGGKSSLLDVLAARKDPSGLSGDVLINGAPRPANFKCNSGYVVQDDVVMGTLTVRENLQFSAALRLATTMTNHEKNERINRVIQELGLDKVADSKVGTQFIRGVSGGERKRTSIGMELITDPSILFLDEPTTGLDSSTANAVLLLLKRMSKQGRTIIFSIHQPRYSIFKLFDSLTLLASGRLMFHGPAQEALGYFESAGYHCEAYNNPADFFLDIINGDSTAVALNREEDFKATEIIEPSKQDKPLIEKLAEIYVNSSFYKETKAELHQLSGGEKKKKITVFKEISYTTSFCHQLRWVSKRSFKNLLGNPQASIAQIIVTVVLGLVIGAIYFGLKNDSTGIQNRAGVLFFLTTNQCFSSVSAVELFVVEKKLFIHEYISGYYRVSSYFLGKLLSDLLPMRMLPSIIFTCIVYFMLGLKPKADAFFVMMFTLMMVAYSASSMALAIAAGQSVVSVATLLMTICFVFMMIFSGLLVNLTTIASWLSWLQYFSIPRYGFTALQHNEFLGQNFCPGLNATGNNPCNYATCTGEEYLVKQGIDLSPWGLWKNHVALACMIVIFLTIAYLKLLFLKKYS

[4] = test system: intestinal BCRP and hepatic OATP1B1, OATP1B3, NTCP; assay: Mechanistic static prediction of rosuvastatin AUC change (AUCR); details: predicted AUCR 1.01
[5] = test system: OATP1B1; details: probe substrate atorvastatin; ref Karlgren et al.[31]; cited from earlier work
[6] = human, in vivo

For `COC(=O)N[C@H](C(=O)N[C@@H](Cc1ccccc1)[C@@H](O)CN(Cc1ccc(-c2ccccn2)cc1)NC(=O)[C@@H](NC(=O)OC)C(C)(C)C)C(C)(C)C` [atazanavir], the inhibition [1] is given as ~80% and 75%, the IC50 at 2 min [2] is given as 928 nM and the “Published IC50/Ki (BCRP)” value [3] is given as 69.1 (pheophorbide A) μM. For the same compound, the “Reduction in NTCP function reflected by predicted AUCR” value [4] was 4% and the “Published IC50/Ki (OATP1B1)” value [5] was 0.91 (atorvastatin) μM.

For `Cc1cccc(C)c1OCC(=O)N[C@@H](Cc1ccccc1)[C@@H](O)C[C@H](Cc1ccccc1)NC(=O)[C@H](C(C)C)N1CCCNC1=O` [lopinavir], the “[Ig] maximal enterocyte concentration” value [6] was 42.4 ^d μM, the “[Iin max u] unbound maximum hepatic inlet concentration” value [6] was 0.450 µM and the “[Iin max] maximum hepatic inlet concentration” value [6] was 22.5 ^d μM.
